Row | SMILES | melting point [°C]
1 | O=C(O)/C=C/c1cccc(OCCC(c2ccccc2)(c2ccccc2)c2ccccc2)c1 | 104 to 109
2 | O=C(CCc1ccccc1)CS(=O)(=O)C(c1ccc(Cl)cc1)c1ccc(Cl)cc1 | 106 to 107
3 | CN(CC#Cc1cc(CN2CCOCC2)cc2c(=O)c(C(=O)NCc3ccc(Cl)cc3)cn(C)c12)CC(O)CO (stereo not drawn) | 140 to 142
4 | CCCC1CCC2(C)C(=CCC3C4CCC(=O)C4(C)CCC32)C1 (stereo not drawn) | 103 to 105
5 | CC(C)(C)OC(=O)N1CCC(c2nc3cc(-c4ccc(S(C)(=O)=O)cc4F)cc(F)c3o2)CC1 | 155 to 158
6 | O[C@@H](CNCCOc1ccc2oc(-c3noc(C(F)(F)F)n3)cc2c1)COc1ccccc1F | 117 to 119
7 | Fc1ccc(NC(=S)Nc2nc3ccc(OC(F)(F)F)cc3s2)cc1 | 207
8 | COc1cc(OC)c2cnnc(Cl)c2c1 | 167
9 | CC1(C)CC(=O)Nc2c(Br)cc3c(c21)OC(CBr)C3 (stereo not drawn) | 237 to 239
10 | CC(=O)N[C@@H](C)COC1CCN(c2nc3ccc(OCC4CC4)cc3o2)CC1 | 120
11 | OCCCN1CCN2c3ccccc3Cc3ccccc3C2C1 (stereo not drawn) | 127 to 128
12 | CC(C)(C)NCC(O)COc1cccc2[nH]cc(Cl)c12 (stereo not drawn) | 95 to 97
13 | CCOc1c(C(=O)Nc2ccccc2)csc1Cl | 69
14 | O=C(NC1CCOCC1)c1ccc(-c2cc(-c3c(-c4ccccn4)nc4ccccn34)ccn2)cc1 | 179
15 | CCCN(CCC)S(=O)(=O)c1cc(-c2csc(=Nc3cccc(C)c3C)n2C)ccc1Cl | 184 to 187
16 | O=C(O)C1=Cc2cc(Oc3ccc(C(F)(F)F)cc3)ccc2OC1C(F)(F)F (stereo not drawn) | 154
17 | O=S(=O)(c1ccc(Br)cc1)N1CCN(CC2CCN(c3ccncc3)CC2)CC1 | 179 to 180
18 | CCCCCC(CC(=O)Nc1cc(C(=O)O)ccc1C(C)(C)C)c1ccc(C(=O)CC)cc1OC (stereo not drawn) | 197 to 199
19 | FC(F)(F)c1cccc(N2CCN(CCCCNc3cc(-c4ccccc4)ccn3)CC2)c1 | 120
20 | CCCc1c(OCc2cccc(C(=O)OC)c2)ccc(C(C)=O)c1O | 141 to 143
21 | CC1(C)CC(=O)SC(=NCCCCN2CCN(c3ncccn3)CC2)N1 | 148
22 | CN1C(=O)c2cccc(S(=O)(=O)Cl)c2C1=O | 159 to 162
23 | COC(=O)C1CN(Cc2ccccc2)c2ccccc2CN1S(=O)(=O)c1ccc(OC)cc1 (stereo not drawn) | 120 to 122
24 | COc1ccc(-c2nc(SCC(F)(F)F)[nH]c2-c2ccc(OC)cc2)cc1 | 119 to 120

Row | SMILES | melting point [°C]
25 | CC(C(=O)Cl)c1ccc(C(=O)c2cccs2)cc1 (stereo not drawn) | 149
26 | CN1C(=O)CC[C@]2(C)c3ccc(-c4ccccc4Cl)cc3CC[C@@H]12 | 111 to 120
27 | CC(Oc1cc(Oc2ccc(C(F)(F)F)cc2Cl)ccc1[N+](=O)[O-])C(=O)OCn1cccn1 (stereo not drawn) | 75
28 | O=C(NCCCc1cccs1)n1cc(F)c(=O)[nH]c1=O | 131 to 133
29 | Cn1nc(-c2c(F)cccc2Cl)nc1COc1ccc(C(C)(C)C)cc1 | 84 to 86
30 | CCC[C@H](NC(=O)Cc1cc(F)cc(F)c1)C(=O)Nc1ncc(-c2ccc(OC)cc2COC(C)C)s1 | 73.9
31 | CCCC1CC(=O)C(C(=O)NS(=O)(=O)c2ccc(C)cc2)C(=O)C1 (stereo not drawn) | 132 to 134
32 | Cc1ccc(N(C)C(=O)CN(C(=O)CNC(=O)Nc2cccc(C)c2)c2ccccc2)cc1 | 162
33 | Cn1cnnc1C(c1ccc(C#N)cc1)c1cc2c3c(c1)c(-c1cccc(Cl)c1)cc(=O)n3CC2 (stereo not drawn) | 174
34 | COc1cccc2c(CCCN(C3CCC3)C3COc4c(F)ccc(C(N)=O)c4C3)coc12 (stereo not drawn) | 131 to 140
35 | CCCc1c(C(=O)C(C)C)c2ccc(C(N)=O)cc2n1Cc1ccc(F)cc1Cl | 192 to 193
36 | O=C1CC(NC(=O)c2c[nH]c3ccccc23)CCCN1 (stereo not drawn) | 243 to 244
37 | CS(=O)(=O)NCCNCc1ccccc1 | 71 to 73
38 | CCc1cn([C@H]2C[C@H](OC(C)=O)[C@@H](/C=C/C(=O)Cc3c(Cl)cccc3Cl)O2)c(=O)[nH]c1=O | 165
39 | N#CCc1cccc2c(-c3ccc([N+](=O)[O-])cc3)nccc12 | 219
40 | COC(=O)CCCc1cc2nc(Cl)ccc2n1S(=O)(=O)c1ccc2c(c1)OCO2 | 120
41 | CC(C)C[C@H](NC(=O)Nc1cccc2ccccc12)C(=O)NC1CCOC1O (stereo partly drawn) | 177 to 178
42 | CNC(=O)c1ccc(N2CCN(Cc3cc4c(c(OC)c3)OC(C)C(=O)N4)CC2)c(F)c1 (stereo not drawn) | 241 to 244
43 | O=C(C1CCCCC1)N1CC(=O)N2CCCc3ccccc3C2C1 (stereo not drawn) | 187 to 190
44 | CCc1nc2c(c3c1[nH]c1ccccc13)C(=O)CC(C)(C)C2 | 188 to 190
45 | CS(=O)(=O)Nc1ccc(C(=O)NCCN2CCc3ccsc3C2c2ccccc2)cc1 (stereo not drawn) | 185 to 187
46 | CC(C)(C)C(NC(=O)c1ccc(Cl)cc1)Nc1c(Nc2ccccn2)c(=O)c1=O (stereo not drawn) | 246 to 248
47 | CCOC(=O)c1cn(C(C)(C)C)c2nc(NC(=O)c3ccc(C)cc3)sc12 | 200 to 201

Other lines, results leading:

Row | melting point [°C] | SMILES
48 | 89 to 96 | COc1cc(C=C2CCCOC2CN)c([N+](=O)[O-])cc1OC (stereo not drawn)
49 | 152 to 154 | COc1cc(O)ccc1-c1ccc2cc(O)ccc2c1
50 | 174 | OCC=Cc1cccc(-c2nnn[nH]2)c1
51 | 140 to 142 | CCOC(=O)c1cn(CC)c2sc(C)cc2c1=O
52 | 175 to 177 | Cc1cc(=O)[nH]c(=O)n1C1OC(CO)C(O)C1O (stereo not drawn)
53 | 81 to 82 | O=C1CCC(CCC(=O)OCc2ccc(C(F)(F)F)cc2)N1 (stereo not drawn)
54 | 68 to 70 | CCN1C[C@@H](SCc2ccc(OC)cc2)C[C@H]1C(=O)NC
55 | 140 to 142 | COc1ccc2sc(CC3(O)C4CC5CC(C4)CC3C5)nc2c1 (stereo not drawn)
56 | 67 to 102 | CC(=O)c1nn(-c2c(Cl)cc(C(F)(F)F)cc2Cl)c(NSC(F)(F)F)c1S(C)=O (stereo not drawn)
57 | 61 | Clc1cnnc(Cl)c1Cl
58 | 195 to 196 | Oc1ccccc1-c1cc(-c2ccc3c(c2)OCO3)cc(-c2ccc3ccccc3c2)n1
59 | 112 to 113 | CC1CC(NC=O)=NN1c1ccc(Cl)cc1 (stereo not drawn)
60 | 63 | CN1CC=CC(c2cc3ccccc3o2)C1 (stereo not drawn)
61 | 144 to 145 | COC(=O)COc1cc(N(C(=O)CCl)C(=O)C2=C(C(=O)OC)CCCC2)c(F)cc1Cl
62 | 135 to 137 | CC(Cl)(Cl)C(NC(=O)c1ccc(Cl)cc1)NC(=NC#N)Nc1cccnc1Cl (stereo not drawn)
63 | 163 | O=C(C=Cc1cccc(S(=O)(=O)NCc2ccc3c(c2)OCO3)c1)NO
64 | 197 to 199 | Cc1ccc(Nc2nc(-c3ccc(-c4ccccn4)s3)cs2)nc1
65 | 88 | O=C(O)CCCc1cc2nc(Cl)ccc2n1S(=O)(=O)c1ccc(N2CCCC2)cc1
66 | 65 to 77 | NC1=NC(c2ccc(OC(F)(F)F)cc2)(c2cccc(CCC3CC3)c2)C2=NCCCN12 (stereo not drawn)
67 | 65 to 68 | COc1cc2cc(CO)c(CO)c(-c3ccnc(-n4c(=O)cc(C(=O)N(CCO)CCO)c5ccccc54)c3)c2cc1OC
68 | 156 to 160 | COC(=O)N1Cc2c(-c3ccc(F)cc3)ncn2-c2ccccc21
69 | 187 to 190 | N#Cc1c(F)c(F)cc(C(=O)O)c1F
70 | 68 | Cc1ccc(C(=O)c2ccc(F)cc2)s1
71 | 260 to 264 | CN1CCN(c2ccc(Nc3cc(-c4cccc(-n5ncc6cc(C(C)(C)C)cc(F)c6c5=O)c4CO)nn(C)c3=O)nc2)CC1
72 | 183 to 184 | COC(=O)c1ccc(-c2nc(-c3ccc(Cl)cc3)co2)cc1
73 | 176 to 179 | C=CC(C)ONC(=O)c1nc(-c2ccc(Cl)c(OC)c2F)cc(N)c1Cl (stereo not drawn)

Row | melting point [°C] | SMILES
74 | 146 to 148 | Cc1cccc(C(=O)Nc2nc(=O)n(C3OC(C)C(O)C3O)cc2F)c1 (stereo not drawn)
75 | 64.4 | CON=C(C(C)=O)C(=O)OC
76 | 226 to 227 | CC(C)c1nc2cc(NC(=O)c3c(C(=O)N4CCC4)cnn3C)ccn2n1
77 | 186 to 187 | COC(=O)c1ccc(Cn2nc(-c3ccc(OC)cc3)c(-c3ccc(OC)cc3)cc2=O)cc1
78 | 122 | ClCc1c(-c2ccccc2)c(-c2ccccc2)nn1-c1ccccc1
79 | 146 to 147 | Cn1cc(-c2noc(C(N)CN3CCCCC3)n2)c2ccccc21 (stereo not drawn)
80 | 150 to 152 | O=[N+]([O-])c1ccc(Oc2ccc(C(c3ccc(Oc4ccc([N+](=O)[O-])cc4)cc3)(C(F)(F)F)C(F)(F)F)cc2)cc1
81 | 204 | COc1ccccc1C1CCC(=O)CC1(O)C(=O)O (stereo not drawn)
82 | 243 to 244 | CC(C)(C)OC(=O)NCc1ccc(-n2c(-c3cccnc3N)nc3ccc(-c4cn[nH]c4)nc32)cc1
83 | 149 to 151 | Oc1cc(-c2c(F)c(F)c(F)c(F)c2F)nn1-c1ccccc1
84 | > 210 | N#CNC(=S)Nc1cccc([N+](=O)[O-])c1
85 | 238 to 240 | Nc1nc(N)c2ncn(C3OC(CO)C(O)C3O)c2n1 (stereo not drawn)
86 | 145 to 147 | COc1ccc(C(O)(c2ccc(OC)cc2)C2CCN(CCC3CN(C)C(=O)O3)CC2)cc1 (stereo not drawn)
87 | 211 to 212 | CC(=O)Nc1ccc2c(c1)C(=O)C1(CC1)O2
88 | 56 | CC1(C)C(Br)C(=O)C1CC(Cl)(Cl)Cl (stereo not drawn)
89 | 165 | CCCCc1nc2cc[nH]c(=O)c2n1Cc1ccc(-c2ccccc2C#N)cc1
90 | 141 to 144 | C[C@@H](N1CCN(c2ccc(OCC(F)(F)C(F)(F)F)cc2)C1=O)[C@@]1(c2ccc(F)cc2F)CO1
91 | 250 | N#Cc1cc(N=Nc2cc(Cl)ccc2Cl)ccc1N
92 | 52 to 54 | CCCC(=O)OC(C)OC(=O)Nc1ccc(Cl)cc1 (stereo not drawn)
93 | 111 to 112 | O=C(O)CCC(O)c1ccc(-c2ccc(F)cc2F)cc1 (stereo not drawn)
94 | 202 to 204 | Cc1ccc2c(c1)N=C(N1CCN(C)CC1)c1cccc3ccn-2c13
95 | 107 to 109 | Cc1ccc(C)c(OC(C)(C)C(=O)O)c1
96 | 136 to 138 | CC(C)N(CCCCOCC(=O)O)c1nc(-c2ccccc2)c(-c2ccccc2)nc1Cl
97 | 192 to 193 | CCOC(=O)C=Cc1ccc(N[C@@H](CCC(N)=O)C(=O)O)cc1
98 | 152 to 155 | C[C@H](NC(=O)CS)C(=O)N1CCC[C@H]1C(=O)O
